Laboratory results from patent US5173403A, “Thermostable acid protease from sulfolobus acidocaldarius and gene” (Oklahoma Medical Research Foundation, priority 1990, dated 1992).
Where “and” joins values, the source holds several entries; their conditions need not be identical. Identical values can stand only once. Entries after “also recorded” stand apart in the source; their conditions may differ. Like-named read-outs stand apart in the source and are kept apart here. Numbered stars: 1 amine (or outer) side, 2 acyl side, 3 side chain; on linkers, the order of the positions; unused ones are H or OH. Square brackets hold non-standard residues; d marks the D form. Peptide text beside a SMILES is read from it. * marks the point of attachment. Sta = CC(C)C[C@H](N)[C@@H](O)CC(=O)O; Isovaleryl = CC(C)CC(=O)*; CO = O=C([*:1])[*:2]

Target: T1, thermopsin, thermostable acid protease purified from Sulfolobus acidocaldarius culture medium (Sulfolobus acidocaldarius, UniProt P17118)
T1 construct: There are 41 amino acids in front of the NH2 -terminal position of thermopsin including the initiation methionine; made in house; host or cells: native enzyme purified from Sulfolobus acidocaldarius culture medium (not recombinant)
T1 sequence (P17118 42-340): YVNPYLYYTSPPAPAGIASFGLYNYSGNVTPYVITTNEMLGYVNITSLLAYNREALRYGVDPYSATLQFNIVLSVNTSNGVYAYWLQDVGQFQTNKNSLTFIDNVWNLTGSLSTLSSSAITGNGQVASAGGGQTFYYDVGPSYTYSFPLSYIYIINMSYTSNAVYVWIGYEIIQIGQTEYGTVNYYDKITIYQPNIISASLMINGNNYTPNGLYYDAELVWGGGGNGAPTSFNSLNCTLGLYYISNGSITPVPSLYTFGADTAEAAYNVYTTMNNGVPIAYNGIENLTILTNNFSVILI
Assay: Effects of proteinase inhibitors on thermopsin (preincubation with inhibitor, then 14C-hemoglobin proteolytic assay)
Format: biochemical
Conditions: for remaining activity at 20 µM: 0.02 mM inhibitor in preincubation (pH 6.0, 37° C., 5 min); for remaining activity at 10 µM: 0.01 mM inhibitor in preincubation (pH 6.0, 37° C., 5 min)
Procedure: Proteolytic activity is routinely assayed using ^14 C-methylated bovine hemoglobin as substrate, as prepared according to the method of Lin, et al., J. Biol. Chem. 264,4482-4489 (1989). The assay mixture, containing 0.51% hemoglobin substrate and thermopsin in 0.1 ml of 0.1M sodium formate, pH 3.2, is placed in an Eppendorf tube. After incubation at 80° C. for a period of time between 5 to 30 min, depending on the level of activity of thermopsin used, an aliquot of 0.1 ml of 10% trichloracetic acid is added to stop the reaction and precipitate the protein. After removal of the precipitate by centrifugation, the radioactivity of an aliquot of the clear supernate is determined in a scintillation counter.
The effect of various protease inhibitors on the activity of thermopsin was tested.
Thermopsin is preincubated with the indicated level of inhibitor in 0.1 M
phosphate buffer, pH 6.0, containing 1 mM EDTA and DTT at 37° C.
for 5 min. Sodium formate (pH 3.2) and ^14 CHemoglobin is then added
to a concentration as described above. The enzyme assay is then carried
out at 80° C. for 15 min. Enzyme activity is expressed as percent

[1] = assay pH 3.2, 80° C., 15 min, percent of control, read-out: Enzyme Activity (%)
[2] = concentration not given, see Table II

Question: For `CC(C)C[C@H](NC(=O)N[C@H](C(=O)N[C@@H](CCC(N)=O)C(=O)N[C@@H](C)C=O)[C@@H]1CCNC(=N)N1)C(=O)O` [Elastatinal, elastatinal], which remaining activity at 20 µM [1] is on record?
Answer: The remaining activity at 20 µM was 70%.

Question: Which remaining activity at 10 µM [1] does the source give for `Cc1ccc(S(=O)(=O)N[C@@H](Cc2ccccc2)C(=O)CCl)cc1` [TPCK, N-Tosyl-L-phenylalanine chloromethyl ketone] here?
Answer: The remaining activity at 10 µM was 14%.

Question: What about the “effect of inhibitor on thermopsin activity (in words)” value (from here on “effect of inhibitor”) [2] of the same compound?
Answer: Its value is “significantly inactivate; also recorded: significant inhibition”.

Question: How did the “effect of inhibitor” value turn out when `O=C(O)CI` [Iodoacetic Acid, iodoacetic acid] was run?
Answer: The value was “little effect”.

Question: What about the remaining activity at 100 µM (read-out: Enzyme Activity (%)) of the same compound?
Answer: The remaining activity at 100 µM was 74%.

Question: How did the remaining activity at 10 µM [1] turn out when `Cc1ccc(S(=O)(=O)N[C@@H](CCCCN)C(=O)CCl)cc1` [TLCK, N-p-Tosyl-1-lysine chloromethyl ketone] was run?
Answer: Its remaining activity at 10 µM is 78%.

Question: And the “effect of inhibitor” value [2]?
Answer: Its value is “much less effective”.

Question: How did the “Enzyme Activity (%)” value (2 mM inhibitor in preincubation (pH 6.0, 37° C., 5 min), assay pH 3.2, 80° C., 15 min, percent of control) turn out when `O=S(=O)(F)Cc1ccccc1` [PMSF, phenylmethylsulfonyl fluoride] was run?
Answer: The value was 28%.

Question: What about the “effect of inhibitor” value [2] of the same compound?
Answer: Its value is “significantly inactivate; also recorded: significant inhibition”.

Question: For `CC(C)CC(=O)N[C@H](C(=O)N[C@H](C(=O)N[C@@H](CC(C)C)[C@@H](O)CC(=O)N[C@@H](C)C(=O)N[C@@H](CC(C)C)[C@@H](O)CC(=O)O)C(C)C)C(C)C` [Pepstatin, pepstatin] (Isovaleryl-VV[Sta]A[Sta]-OH), which remaining activity at 0.5 µM (0.5 μM inhibitor in preincubation (pH 6.0, 37° C., 5 min), assay pH 3.2, 80° C., 15 min, percent of control, read-out: Enzyme Activity (%)) is on record?
Answer: Its remaining activity at 0.5 µM is 50%.

Question: What about the remaining activity at 5 µM (5 μM inhibitor in preincubation (pH 6.0, 37° C., 5 min), assay pH 3.2, 80° C., 15 min, percent of control, read-out: Enzyme Activity (%)) of the same compound?
Answer: Its remaining activity at 5 µM is 16%.

Question: And the “effect of inhibitor” value [2]?
Answer: Its value is “strongly inhibited”.

Question: And the IC50 (thermopsin proteolytic activity, hemoglobin substrate, read-out: inhibitor concentration giving 50% inhibition of enzyme activity)?
Answer: The IC50 was ~500 nM and 500 nM.

Question: `CCCCC(NC(=O)C=[N+]=[N-])C(=O)OC` (racemic) [DAN, diazoacetyl-DL-norleucinemethlyester] was tested. Which remaining activity at 12000 µM (12 mM inhibitor in preincubation (pH 6.0, 37° C., 5 min), assay pH 3.2, 80° C., 15 min, percent of control, read-out: Enzyme Activity (%)) did it give?
Answer: Its remaining activity at 12000 µM is 100%.

Question: And the “effect of inhibitor” value [2]?
Answer: The value was “not inactivated; also recorded: no effect”.

Question: `O=C(O)CN(CCN(CC(=O)O)CC(=O)O)CC(=O)O` [EDTA] was tested. Which “effect of inhibitor” value did it give?
Answer: The value was “little effect”.

Question: And the remaining activity at 1000 µM (read-out: Enzyme Activity (%))?
Answer: The remaining activity at 1000 µM was 100%.

Question: `CC(=O)N[C@@H](CC(C)C)C(=O)N[C@@H](CC(C)C)C(=O)N[C@H](C=O)CCCNC(=N)N` [Leupeptin, leupeptin] was tested. Which remaining activity at 4 µM (0.004 mM inhibitor in preincubation (pH 6.0, 37° C., 5 min), assay pH 3.2, 80° C., 15 min, percent of control, read-out: Enzyme Activity (%)) did it give?
Answer: The remaining activity at 4 µM was 93%.

Question: How did the remaining activity at 20 µM [1] turn out when `CC(C)[C@H](NC(=O)[C@H](CCCNC(=N)N)NC(=O)N[C@@H](Cc1ccccc1)C(=O)O)C(=O)N[C@H](C=O)CCCNC(=N)N` [Antipain, antipain] ({Phe-CO}-Arg-Val-Arg-aldehyde) was run?
Answer: The remaining activity at 20 µM was 25%.

Question: And the “effect of inhibitor” value [2]?
Answer: The value was “inhibited; also recorded: significant inhibition”.

Question: Which results are given for `CCN1C(=O)C=CC1=O` [N-ethylmaleimide]?
Answer: remaining activity at 100 µM (0.1 mM inhibitor in preincubation (pH 6.0, 37° C., 5 min), assay pH 3.2, 80° C., 15 min, percent of control, read-out: Enzyme Activity (%)): 95%; effect of inhibitor on thermopsin activity (in words) [2]: little effect
